Test results published in patent US20060030609A1, “Oxazolidinones containing oxindoles as antibacterial agents” (priority 2004, published 2006).
Converted amounts (≈) assume the structure as drawn.

What was measured:
Assay in all cases: in vitro antibacterial activity (MIC, NCCLS dilution)
Format in all cases: cell-based
E.faecalis MGH-2 EF 1-1 = conditions: Enterococcus faecalis, MGH2EF11
From the text: (§1) The in vitro antibacterial activity of the compounds of the present invention may be assessed by following procedures recommended in (1) National Committee for Clinical Laboratory Standards (January 2003), Methods for dilution antimicrobial tests for bacteria that grow aerobically, Approved Standard (6th ed), M7-A6, NCCLS, Wayne, Pa.; (2) National Committee for Clinical Laboratory Standards (March 2001), Method for antimicrobial susceptibility testing of anaerobic bacteria, Approved Standard (5th ed), M11-A4, NCCLS, Wayne, Pa.; (3) National Committee for Clinical Laboratory Standards (January 2003), MIC testing supplemental tables, M100-S13 (for use with M7-A6), NCCLS, Wayne, Pa.; and (4) Murray P R, Baron E J, Jorgensen J H, et al. Manual of Clinical Microbiology (8th ed) Washington, D.C.: American Society for Microbiology Press, 2003. The MJC value is the lowest concentration of drug which prevented macroscopically visible growth under the conditions of the test.

S. aureus UC-76 SA-1 = conditions: Staphylococcus aureus, UC76
From the text: as §1

S. pneumoniae SV1 SP-3 = conditions: Streptococcus pneumoniae, SV1SP3
From the text: as §1

Row | SMILES | MIC90 (E.faecalis MGH-2 EF 1-1) | MIC90 (S. aureus UC-76 SA-1) | MIC90 (S. pneumoniae SV1 SP-3)
1 | CN1C(=O)Cc2cc(N3C[C@H](C(N)=O)OC3=O)ccc21 [Example 1, (5R)-3-(1-methyl-2-oxo-2,3-dihydro-1H-indol-5-yl)-2-oxo-oxazolidine-5-carboxylic acid amide] | 4 µg/mL (≈ 14.5 µM) | 2 µg/mL (≈ 7.27 µM) | 2 µg/mL (≈ 7.27 µM)
2 | CNC(=O)[C@H]1CN(c2ccc3c(c2)CC(=O)N3C)C(=O)O1 [Example 2] | 4 µg/mL (≈ 13.8 µM) | 2 µg/mL (≈ 6.91 µM) | 2 µg/mL (≈ 6.91 µM)
3 | CN1C(=O)Cc2cc(N3C[C@H](C(N)=O)OC3=O)cc(F)c21 [Example 3, (5R)-3-(7-fluoro-1-methyl-2-oxo-2,3-dihydro-1H-indol-5-yl)-2-oxo-oxazolidine-5-carboxylic acid amide] | 16 µg/mL (≈ 54.6 µM) | 16 µg/mL (≈ 54.6 µM) | 16 µg/mL (≈ 54.6 µM)
4 | CCN1C(=O)Cc2cc(N3C[C@H](C(N)=O)OC3=O)ccc21 [Example 4, (5R)-3-(1-ethyl-2-oxo-2,3-dihydro-1H-indol-5-yl)-2-oxo-oxazolidine-5-carboxylic acid amide] | 4 µg/mL (≈ 13.8 µM) | 4 µg/mL (≈ 13.8 µM) | 2 µg/mL (≈ 6.91 µM)
5 | CCN1C(=O)Cc2cc(N3C[C@H](C(=O)NC)OC3=O)ccc21 [Example 5] | 4 µg/mL (≈ 13.2 µM) | 4 µg/mL (≈ 13.2 µM) | 4 µg/mL (≈ 13.2 µM)
6 | NC(=O)[C@H]1CN(c2ccc3c(c2)CC(=O)N3CCF)C(=O)O1 [Example 6] | 4 µg/mL (≈ 13 µM) | 4 µg/mL (≈ 13 µM) | 4 µg/mL (≈ 13 µM)
7 | CNC(=O)[C@H]1CN(c2ccc3c(c2)CC(=O)N3CCF)C(=O)O1 [Example 7] | 4 µg/mL (≈ 12.4 µM) | 4 µg/mL (≈ 12.4 µM) | 4 µg/mL (≈ 12.4 µM)
8 | CC(C)N1C(=O)Cc2cc(N3C[C@H](C(N)=O)OC3=O)ccc21 [Example 8] | 4 µg/mL (≈ 13.2 µM) | 4 µg/mL (≈ 13.2 µM) | 4 µg/mL (≈ 13.2 µM)
9 | CNC(=O)[C@H]1CN(c2ccc3c(c2)CC(=O)N3C(C)C)C(=O)O1 [Example 9, (5R)-3-(1-isopropyl-2-oxo-2,3-dihydro-1H-indol-5-yl)-2-oxo-oxazolidine-5-carboxylic acid methylamide] | 8 µg/mL (≈ 25.2 µM) | 8 µg/mL (≈ 25.2 µM) | 4 µg/mL (≈ 12.6 µM)
10 | CC(C)N1C(=O)Cc2cc(N3C[C@H](C(N)=O)OC3=O)cc(F)c21 [Example 10, (5R)-3-(7-fluoro-1-isopropyl-2-oxo-2,3-dihydro-1H-indol-5-yl)-2-oxo-oxazolidine-5-carboxylic acid amide] | 4 µg/mL (≈ 12.4 µM) | 4 µg/mL (≈ 12.4 µM) | 4 µg/mL (≈ 12.4 µM)
11 | NC(=O)[C@H]1CN(c2ccc3c(c2)CC(=O)N3C2CC2)C(=O)O1 [Example 11, (5R)-3-(1-cyclopropyl-2-oxo-2,3-dihydro-1H-indol-5-yl)-2-oxo-oxazolidine-5-carboxylic acid amide] | 16 µg/mL (≈ 53.1 µM) | 8 µg/mL (≈ 26.6 µM) | 8 µg/mL (≈ 26.6 µM)
12 | CNC(=O)[C@H]1CN(c2ccc3c(c2)CC(=O)N3C2CC2)C(=O)O1 [Example 12, (5R)-3-(1-cyclopropyl-2-oxo-2,3-dihydro-1H-indol-5-yl)-2-oxo-oxazolidine-5-carboxylic acid methylamide] | 16 µg/mL (≈ 50.7 µM) | 8 µg/mL (≈ 25.4 µM) | 8 µg/mL (≈ 25.4 µM)
13 | CCCN1C(=O)Cc2cc(N3C[C@H](C(N)=O)OC3=O)ccc21 [Example 13, (R)-2-oxo-3-(2-oxo-1-propyl-2,3-dihydro-1H-indol-5-yl)-oxazolidine-5-carboxylic acid amide] | 8 µg/mL (≈ 26.4 µM) | 4 µg/mL (≈ 13.2 µM) | 8 µg/mL (≈ 26.4 µM)
14 | CCCN1C(=O)Cc2cc(N3C[C@H](C(=O)NC)OC3=O)ccc21 [Example 14, (R)-2-oxo-3-(2-oxo-1-propyl-2,3-dihydro-1H-indol-5-yl)-oxazolidine-5-carboxylic acid methylamide] | 4 µg/mL (≈ 12.6 µM) | 4 µg/mL (≈ 12.6 µM) | 4 µg/mL (≈ 12.6 µM)
15 | CCCN1C(=O)Cc2cc(N3C[C@H](C(N)=O)OC3=O)cc(F)c21 [Example 15, (R)-3-(7-fluoro-2-oxo-1-propyl-2,3-dihydro-1H-indol-5-yl)-2-oxo-oxazolidine-5-carboxylic acid amide] | 8 µg/mL (≈ 24.9 µM) | 4 µg/mL (≈ 12.4 µM) | 8 µg/mL (≈ 24.9 µM)
16 | CC(C)(C)N1C(=O)Cc2cc(N3C[C@H](C(N)=O)OC3=O)ccc21 [Example 16] | 16 µg/mL (≈ 50.4 µM) | 8 µg/mL (≈ 25.2 µM) | 16 µg/mL (≈ 50.4 µM)
17 | CCC(C)N1C(=O)Cc2cc(N3C[C@H](C(N)=O)OC3=O)ccc21 (stereo partly drawn) [Example 17, (R)-3-(1-sec-butyl-2-oxo-2,3-dihydro-1H-indol-5-yl)-2-oxo-oxazolidine-5-carboxylic acid amide] | 8 µg/mL (≈ 25.2 µM) | 4 µg/mL (≈ 12.6 µM) | 8 µg/mL (≈ 25.2 µM)
18 | CCC(C)N1C(=O)Cc2cc(N3C[C@H](C(=O)NC)OC3=O)ccc21 (stereo partly drawn) [Example 18, (R)-3-(1-sec-butyl-2-oxo-2,3-dihydro-1H-indol-5-yl)-2-oxo-oxazolidine-5-carboxylic acid methylamide] | 8 µg/mL (≈ 24.1 µM) | 8 µg/mL (≈ 24.1 µM) | 8 µg/mL (≈ 24.1 µM)
19 | CC(CF)N1C(=O)Cc2cc(N3C[C@H](C(N)=O)OC3=O)ccc21 (stereo partly drawn) [Example 19, (R)-3-[1-(2-fluoro-1-methyl-ethyl)-2-oxo-2,3-dihydro-1H-indol-5-yl]-2-oxo-oxazolidine-5-carboxylic acid amide] | 4 µg/mL (≈ 12.4 µM) | 4 µg/mL (≈ 12.4 µM) | 4 µg/mL (≈ 12.4 µM)
20 | CC(C)CN1C(=O)Cc2cc(N3C[C@H](C(N)=O)OC3=O)ccc21 [Example 20, (R)-3-(1-Isobutyl-2-oxo-2,3-dihydro-1H-indol-5-yl)-2-oxo-oxazolidine-5-carboxylic acid amide] | 64 µg/mL (≈ 202 µM) | 64 µg/mL (≈ 202 µM) | 64 µg/mL (≈ 202 µM)
21 | CNC(=O)[C@H]1CN(c2ccc3c(c2)CC(=O)N3CC(C)C)C(=O)O1 [Example 21, (R)-3-(1-isobutyl-2-oxo-2,3-dihydro-1H-indol-5-yl)-2-oxo-oxazolidine-5-carboxylic acid methylamide] | 64 µg/mL (≈ 193 µM) | 64 µg/mL (≈ 193 µM) | 64 µg/mL (≈ 193 µM)
22 | NC(=O)[C@H]1CN(c2ccc3c(c2)CC(=O)N3C2CCC2)C(=O)O1 [Example 22, (R)-3-(1-cyclobutyl-2-oxo-2,3-dihydro-1H-indol-5-yl)-2-oxo-oxazolidine-5-carboxylic acid amide] | 64 µg/mL (≈ 203 µM) | 32 µg/mL (≈ 101 µM) | 64 µg/mL (≈ 203 µM)
23 | CNC(=O)[C@H]1CN(c2ccc3c(c2)CC(=O)N3C2CCC2)C(=O)O1 [Example 23, (R)-3-(1-cyclobutyl-2-oxo-2,3-dihydro-1H-indol-5-yl)-2-oxo-oxazolidine-5-carboxylic acid methylamide] | 64 µg/mL (≈ 194 µM) | 16 µg/mL (≈ 48.6 µM) | 32 µg/mL (≈ 97.2 µM)
